In patent publication US4418192A, “Anthracyclinone trisaccharide compounds” (priority 1981, dated 1983):
≈ marks a conversion by molar mass, not a printed value. Like-named read-outs stand apart in the source and are kept apart here.

What was measured:
L 1210 leukemia = assay: Antitumor activity: prolongation of survival time of CDF1 mice after intraperitoneal transplantation of L 1210 leukemia cells; type: in vivo; settings: Mus musculus, L1210, ip, 720 h, read-out: Prolongation rate of the survival time (T/C)
Procedure: After intraperitoneal transplantation of L 1210 leukemia cells (1×10^5 cells/mouse), 0.25 ml/animal of solutions of one of the anthracyclinone glycosides (HCl salts) of the present invention in physiological saline was intraperitoneally injected to CDF1 mice every day for 9 days.

L 1210 leukemia cells = assay: Inhibition of growth of L 1210 leukemia cells in culture; type: cell-based; settings: Mus musculus, L1210, 48 h, read-out: IC50 Cell growth
Procedure: L 1210 culture cells (5×10^4 cells/ml; final cell concentration) were inoculated to RPMI 1640 medium (Roswell Park Memorial Institute 1640 medium) containing 20% calf serum and then one of the anthracyclinone glycosides listed in Table 4 was added to make a final concentration of 0.1-5 μg/ml. After incubation at 37° C. for 2 days in a CO2 incubator, the number of cells was counted. Based on these counts, the 50% inhibitory concentration (IC50) of each test compound on the growth of L 1210 leukemia cells was calculated relative to the control test.

[1] = system: DNA synthesis in L 1210 cells; assay: Inhibition of DNA synthesis in L 1210 cells (radioactive precursor incorporation); type: cell-based; settings: Mus musculus
Procedure: (§1) For measurement of IC50 on the synthesis of nucleic acids, 5×10^5 L 1210 cells/ml were pre-cultured at 37° C. for 1-2 hours in RPMI 1640 medium containing 10% calf serum in a CO2 incubator. One of the anthracyclinone glycosides listed in Table 4 was added and incubated for a further 15 minutes. Then 0.05 μCi/ml of ^14 C-uridine or ^14 C-thymidine was added and incubated for a further 60 minutes. At the end of incorporation of the radioactive compound, 10% trichloroacetic acid was poured into the cell suspension for termination of the reaction as well as forced precipitation. The acid-insoluble fraction was collected, rinsed three times with 5% trichloroacetic acid and then dissolved in formic acid for measurement of radioactivity. Based on the radioactivities of the test and control runs, IC50 was calculated.

[2] = system: RNA synthesis in L 1210 cells; assay: Inhibition of RNA synthesis in L 1210 cells (radioactive precursor incorporation); type: cell-based; settings: Mus musculus
Procedure: as §1

[3] = in words, cited from earlier work
[4] = L1210, read-out: IC50 DNA synthesis
[5] = L1210, read-out: IC50 RNA synthesis
[6] = L 1210 cells, RPMI 1640 with 20% calf serum, 37° C., 2 days
[7] = L1210, L 1210 cells, 15 min pre-incubation, 60 min with radioactive precursor (^14 C-uridine or ^14 C-thymidine), read-out: IC50 DNA synthesis
[8] = L1210, L 1210 cells, 15 min pre-incubation, 60 min with radioactive precursor (^14 C-uridine or ^14 C-thymidine), read-out: IC50 RNA synthesis

| SMILES | response vs control in vivo at 2.5 mg/kg (L 1210 leukemia) | response vs control in vivo at 5 mg/kg (L 1210 leukemia) | IC50 (L 1210 leukemia cells; [6]) | IC50 [1, 7] | IC50 [2, 8] | response vs control in vivo at 1.25 mg/kg (L 1210 leukemia) | also measured |
| --- | --- | --- | --- | --- | --- | --- | --- |
| CC[C@@]1(O)C[C@H](O[C@H]2C[C@H](N(C)C)[C@H](O[C@H]3C[C@H](OC(C)=O)[C@H](O[C@H]4CCC(=O)[C@H](C)O4)[C@H](C)O3)[C@H](C)O2)c2c(cc3c(c2O)C(=O)c2c(O)cccc2C3=O)[C@H]1C(=O)OC [3"-O--acetyl AKN--RDC] | 114% | 168% |  |  |  |  | response vs control in vivo at 7.5 mg/kg (L 1210 leukemia): 186%; response vs control in vivo at 10 mg/kg (L 1210 leukemia): 180%; IC50 (L 1210 leukemia cells): 0.06 µg/mL (≈ 0.0703 µM); IC50 [1, 4]: 1.3 µg/mL (≈ 1.52 µM); IC50 [2, 5]: 0.1 µg/mL (≈ 0.117 µM) |
| COc1cccc2c1C(=O)c1c(O)c3c(c(O)c1C2=O)C[C@@](O)(C(=O)CO)C[C@@H]3O[C@H]1C[C@H](N(C)C)[C@H](O[C@H]2C[C@H](OC(C)=O)[C@H](O[C@H]3CCC(=O)[C@H](C)O3)[C@H](C)O2)[C@H](C)O1 [3"-O--acetyl AMN--RDC] |  |  | < 0.01 µg/mL | 0.32 µg/mL (≈ 0.374 µM) | 0.012 µg/mL (≈ 0.014 µM) |  | response vs control in vivo at 0.32 mg/kg (L 1210 leukemia; 0.32 mg/kg/day, i.p. every day for 9 days, HCl salts, L 1210 i.p. in CDF1 mice, control = 100): 144%; response vs control in vivo at 0.63 mg/kg (L 1210 leukemia; 0.63 mg/kg/day, i.p. every day for 9 days, HCl salts, L 1210 i.p. in CDF1 mice, control = 100): 165%; response vs control in vivo at 1.25 mg/kg (L 1210 leukemia; 1.25 mg/kg/day, i.p. every day for 9 days, HCl salts, L 1210 i.p. in CDF1 mice, control = 100): 140%; response vs control in vivo at 2.5 mg/kg (L 1210 leukemia; 2.5 mg/kg/day, i.p. every day for 9 days, HCl salts, L 1210 i.p. in CDF1 mice, control = 100): 96% |
| CC(=O)O[C@H]1C[C@H](O[C@@H]2[C@H](C)O[C@@H](O[C@H]3C[C@](O)(C(C)=O)Cc4c(O)c5c(c(O)c43)C(=O)c3c(O)cccc3C5=O)C[C@@H]2N(C)C)O[C@@H](C)[C@H]1O[C@H]1CCC(=O)[C@H](C)O1 [3"-O--acetyl CMN--RDC] | 159% | 208% | < 0.01 µg/mL | 0.36 µg/mL (≈ 0.436 µM) | 0.04 µg/mL (≈ 0.0484 µM) | 124% | response vs control in vivo at 7.5 mg/kg (L 1210 leukemia): 214%; response vs control in vivo at 10 mg/kg (L 1210 leukemia): 165% |
| COc1cccc2c1C(=O)c1c(O)c3c(c(O)c1C2=O)C[C@@](O)(C(C)=O)C[C@@H]3O[C@H]1C[C@H](N(C)C)[C@H](O[C@H]2C[C@H](OC(C)=O)[C@H](O[C@H]3CCC(=O)[C@H](C)O3)[C@H](C)O2)[C@H](C)O1 [3"-O--acetyl DMN--RDC] | 180% | 210% | < 0.01 µg/mL | 0.3 µg/mL (≈ 0.357 µM) | 0.02 µg/mL (≈ 0.0238 µM) | 144% | response vs control in vivo at 0.63 mg/kg (L 1210 leukemia): 114%; response vs control in vivo at 7.5 mg/kg (L 1210 leukemia): 164% |
| COc1cccc2c1C(=O)c1c(O)c3c(c(O)c1C2=O)C[C@@](O)(C(=O)COC(C)=O)C[C@@H]3O[C@H]1C[C@H](N(C)C)[C@H](O[C@H]2C[C@H](OC(C)=O)[C@H](O[C@H]3CCC(=O)[C@H](C)O3)[C@H](C)O2)[C@H](C)O1 [14,3"-O--diacetyl AMN--RDC] |  |  |  |  |  |  | IC50 (L 1210 leukemia cells): < 0.01 µg/mL; IC50 [1, 4]: 0.5 µg/mL (≈ 0.557 µM); IC50 [2, 5]: 0.014 µg/mL (≈ 0.0156 µM) |
| COc1cccc2c1C(=O)c1c(O)c3c(c(O)c1C2=O)C[C@@](O)(C(=O)COC(=O)Cc1ccccc1)C[C@@H]3O[C@H]1C[C@H](N(C)C)[C@H](O[C@H]2C[C@H](OC(C)=O)[C@H](O[C@H]3CCC(=O)[C@H](C)O3)[C@H](C)O2)[C@H](C)O1 [14-O--phenylacetyl-3"-O--acetyl AMN--RDC] |  |  | 0.03 µg/mL (≈ 0.0308 µM) | 4 µg/mL (≈ 4.11 µM) | 0.15 µg/mL (≈ 0.154 µM) |  |  |
| COc1cccc2c1C(=O)c1c(O)c3c(c(O)c1C2=O)C[C@@](O)(C(=O)CO)C[C@@H]3O[C@H]1C[C@H](N(C)C)[C@H](O[C@H]2C[C@H](O)[C@H](O[C@H]3CCC(=O)[C@H](C)O3)[C@H](C)O2)[C@H](C)O1 [AMN--RDC] | 145% | 130% | < 0.01 µg/mL | 0.15 µg/mL (≈ 0.184 µM) | 0.011 µg/mL (≈ 0.0135 µM) | 158% | response vs control in vivo at 0.32 mg/kg (L 1210 leukemia): 114%; response vs control in vivo at 0.63 mg/kg (L 1210 leukemia): 142% |
| CC[C@@]1(O)C[C@H](O[C@H]2C[C@H](N(C)C)[C@H](O[C@H]3C[C@H](O)[C@H](O[C@H]4CCC(=O)[C@H](C)O4)[C@H](C)O3)[C@H](C)O2)c2c(cc3c(c2O)C(=O)c2c(O)cccc2C3=O)[C@H]1C(=O)OC [Aclacinomycin A, reference compound] |  |  | 0.03 µg/mL (≈ 0.037 µM) | 0.65 µg/mL (≈ 0.801 µM) | 0.085 µg/mL (≈ 0.105 µM) |  | cardio-toxicity ([3]; U.S. Pat. No. 3,988,315 and Jap. P. No. 864,851): less cardio-toxic |
| COc1cccc2c1C(=O)c1c(O)c3c(c(O)c1C2=O)C[C@@](O)(C(=O)CO)C[C@@H]3O[C@H]1C[C@H](N)[C@H](O)[C@H](C)O1 [Adriamycin, reference compound] |  |  | 0.018 µg/mL (≈ 0.0331 µM) | 1.25 µg/mL (≈ 2.3 µM) | 0.49 µg/mL (≈ 0.902 µM) |  | side effects ([3]; clinical use as antitumor chemotherapeutics): often cause undesirable side effects |
| CC(=O)[C@]1(O)Cc2c(O)c3c(c(O)c2[C@@H](O[C@H]2C[C@H](N(C)C)[C@H](O[C@H]4C[C@H](O)[C@H](O[C@H]5CCC(=O)[C@H](C)O5)[C@H](C)O4)[C@H](C)O2)C1)C(=O)c1c(O)cccc1C3=O [CMN--RDC] | 160% | 180% | < 0.01 µg/mL | 0.19 µg/mL (≈ 0.242 µM) | 0.035 µg/mL (≈ 0.0447 µM) | 132% | response vs control in vivo at 7.5 mg/kg (L 1210 leukemia): 145% |
| COc1cccc2c1C(=O)c1c(O)c3c(c(O)c1C2=O)C[C@@](O)(C(C)=O)C[C@@H]3O[C@H]1C[C@H](N)[C@H](O[C@H]2C[C@H](O)[C@H](O[C@H]3CCC(=O)[C@H](C)O3)[C@H](C)O2)[C@H](C)O1 [DMN--DaDC] |  |  | 0.09 µg/mL (≈ 0.117 µM) | 1.15 µg/mL (≈ 1.49 µM) | 0.165 µg/mL (≈ 0.214 µM) |  |  |
| CN[C@H]1C[C@H](O[C@H]2C[C@](O)(C(C)=O)Cc3c(O)c4c(c(O)c32)C(=O)c2c(OC)cccc2C4=O)O[C@@H](C)[C@H]1O[C@H]1C[C@H](O)[C@H](O[C@H]2CCC(=O)[C@H](C)O2)[C@H](C)O1 [DMN--DmDC] |  |  |  |  |  |  | IC50 (L 1210 leukemia cells): 0.023 µg/mL (≈ 0.0293 µM); IC50 [1, 4]: 0.62 µg/mL (≈ 0.791 µM); IC50 [2, 5]: 0.065 µg/mL (≈ 0.0829 µM) |
| COc1cccc2c1C(=O)c1c(O)c3c(c(O)c1C2=O)C[C@@](O)(C(C)=O)C[C@@H]3O[C@H]1C[C@H](N(C)C)[C@H](O[C@H]2C[C@H](O)[C@H](O[C@H]3CCC(=O)[C@H](C)O3)[C@H](C)O2)[C@H](C)O1 [DMN--RDC] | 187% | 126% | < 0.01 µg/mL | 0.17 µg/mL (≈ 0.213 µM) | 0.017 µg/mL (≈ 0.0213 µM) | 184% | response vs control in vivo at 0.32 mg/kg (L 1210 leukemia): 126%; response vs control in vivo at 0.63 mg/kg (L 1210 leukemia): 135% |
| COc1cccc2c1C(=O)c1c(O)c3c(c(O)c1C2=O)C[C@@](O)(C(C)=O)C[C@@H]3O[C@H]1C[C@H](N(C)C)[C@H](O[C@H]2C[C@H](O)[C@H](O)[C@H](C)O2)[C@H](C)O1 [DMN--RD] | 165% | 120% | < 0.01 µg/mL | 0.28 µg/mL (≈ 0.408 µM) | 0.04 µg/mL (≈ 0.0583 µM) | 172% | response vs control in vivo at 0.32 mg/kg (L 1210 leukemia): 114%; response vs control in vivo at 0.63 mg/kg (L 1210 leukemia): 144% |
| COc1cccc2c1C(=O)c1c(O)c3c(c(O)c1C2=O)C[C@@](O)(C(C)=O)C[C@@H]3O[C@H]1C[C@H](N)[C@H](O)[C@H](C)O1 [Daunomycin, reference compound] |  |  | 0.036 µg/mL (≈ 0.0682 µM) | 0.3 µg/mL (≈ 0.569 µM) | 0.18 µg/mL (≈ 0.341 µM) |  |  |
